Source: US20180311241A1, “PHARMACEUTICAL SYNERGISTIC COMBINATION” (CADILA HEALTHCARE LIMITED, priority 2015, published 2018)
Values joined by “and” are separate entries in the source; they are usually repeats but may differ in a detail not shown here. Equal values may be shown once.

Assays:
[1] = test system: rat model of infrarenal abdominal aorta-vena cava fistula (AV fistula); experiment: AV fistula model: mean arterial blood pressure; type: in vivo, Sprague Dawley rats; details: for % change in meal arterial pressure / Mean arterial pressure: PO; for % change in meal arterial pressure: 7 days, against vehicle control; for Mean arterial pressure: after 7 days of treatment, AV fistula rats; for reduction of mean arterial blood pressure: after treatment period, in comparison to vehicle control, given as reduction
From the text: (§1) Sprague Dawley rats will be used in the study at the age to 6-8 weeks. A midline abdominal incision will be made under anesthesia to expose the vena cava and abdominal aorta distal to the origin of the renal arteries. A longitudinal incision will be performed in the outer wall of the vena cava. The common wall between the aorta and vena cava will be grabbed through the incision and a fistula (1.0-1.2 mm outer diameter) will be created between the vena cava and aorta. The opening of the outer wall of the vena cava will be closed with a continuous suture. After the surgical procedure, the animals will be allowed to recover with daily monitoring of urine output and sodium excretion in metabolic cages. A matched group of sham-operated rats will serve as controls. After a week of surgical operation, rats will be divided into subgroups according to their daily absolute rate of sodium excretion. Fimasartan or its pharmaceutically acceptable salt, or Sacubitril or its pharmaceutically acceptable salt or their combination will be taken as a low dose, middle dose, and high dose group. Animals will be treated daily for four weeks with weekly measurement of blood pressure. Additionally, sodium excretion and creatinine clearance will be measured twice weekly. In the rat model of infrarenal abdominal aorta-vena cava fistula (AV fistula), workload on heart increases by sustained volume overload, this reduces sodium excretion and leads to cardiac hypertrophy. Rats receiving fimasartan (5, 10 and 30 mg/kg/day), sacubitril (25, 50 and 75 mg/kg/day) and combination (fimasartan 10 mg/kg and sacubitril 50 mg/kg) were evaluated in AV fistula model. Sprague Dawley rats in these experimental groups were treated daily by gavage for seven days and urine volume and sodium excretion were daily measured. Rats treated with vehicle served as controls. Rats with sham operation or animals with arterio-venous fistula treated with vehicle served as controls. Animals were randomized based on 24 h urinary sodium excretion. Animals with <100 μEq/24 h urinary sodium excretion were selected in study except sham control animals. Treatment was initiated for 7 days with daily measurement of sodium excretion and results were expressed as cumulative urinary sodium excretion. […] These observations indicate that combination of fimasartan and sacubitril reduce volume overload associated with AV Fistula. After completion of the treatment period, mean arterial blood pressure was evaluated from animals from different experimental groups.

[2] = test system: five sixth nephrectomized rats; experiment: Subtotal nephrectomy induced hypertension: blood pressure; type: in vivo, Sprague Dawley rats; details: four weeks
Description: Fimasartan 10 mg/kg and Sacubitril 50 mg/kg and combination were administered for 4 weeks. Prior to initiation, Sprague Dawley rats were randomized based on their systolic blood pressure after one week of recovery. These experimental groups were treated daily by gavage for four weeks and their weekly blood pressure was measured. Rats treated with vehicle served as controls and sham operated animals treated with vehicle served as sham controls. […] Experimental model of acute cardiac failure is characterized by several features that closely mimic the pathophysiological consequences of CHF in patients, includes the characteristic neurohumoral activation, decrease in renal perfusion, sodium retention and cardiac hypertrophy (J Biomed Biotechnol. 2011; 2011: 729497). […] Five sixth nephrectomy represent a model of hypertension in rats and in clinic it has been observed that loss of renal mass is associated with increased hypertension (APMIS. 1992 December; 100(12):1097-105; International Journal of Urology (2015) 22, 797-804).

[3] = test system: rat model of infrarenal abdominal aorta-vena cava fistula (AV fistula); experiment: AV fistula model: cumulative urinary sodium excretion; type: in vivo, Sprague Dawley rats; details: PO; for Urinary sodium (cumulative sodium excretion): 7 days of treatment, AV fistula rats; for % change in urinary sodium: 7 days, against vehicle control
From the text: as §1, with “Rats receiving fimasartan (5, 10 and 30 mg/kg/day), sacubitril (25, 50 and 75 mg/kg/day) and combination (fimasartan 10 mg/kg and sacubitril 50 mg/kg) were evaluated in AV fistula model.” left out

[4] = target: NEP (Homo sapiens, UniProt P08473); details: in vivo; cited from earlier work
Sequence of NEP (P08473 whole entry): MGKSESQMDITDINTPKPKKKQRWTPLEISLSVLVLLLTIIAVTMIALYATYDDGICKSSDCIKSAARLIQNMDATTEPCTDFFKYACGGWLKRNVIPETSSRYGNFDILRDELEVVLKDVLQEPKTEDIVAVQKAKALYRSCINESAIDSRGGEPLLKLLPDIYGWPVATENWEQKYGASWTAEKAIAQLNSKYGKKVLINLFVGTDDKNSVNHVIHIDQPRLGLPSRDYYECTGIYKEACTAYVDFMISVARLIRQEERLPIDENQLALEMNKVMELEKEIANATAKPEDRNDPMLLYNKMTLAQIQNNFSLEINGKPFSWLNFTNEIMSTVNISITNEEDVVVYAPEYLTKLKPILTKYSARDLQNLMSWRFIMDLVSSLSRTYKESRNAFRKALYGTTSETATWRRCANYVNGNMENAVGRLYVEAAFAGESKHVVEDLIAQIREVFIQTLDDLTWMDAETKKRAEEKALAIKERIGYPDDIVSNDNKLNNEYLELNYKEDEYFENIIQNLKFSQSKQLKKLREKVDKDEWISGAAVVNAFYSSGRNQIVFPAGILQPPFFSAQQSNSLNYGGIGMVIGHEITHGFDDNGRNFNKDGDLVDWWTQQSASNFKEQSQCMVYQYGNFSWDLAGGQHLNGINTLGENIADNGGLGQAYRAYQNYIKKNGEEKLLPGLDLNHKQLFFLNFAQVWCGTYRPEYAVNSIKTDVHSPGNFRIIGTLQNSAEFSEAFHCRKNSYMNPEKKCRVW

## CCCCc1nc(C)c(CC(=S)N(C)C)c(=O)n1Cc1ccc(-c2ccccc2-c2nnn[nH]2)cc1 [Fimasartan, 2-n-butyl-5-dimethylaminothiocarbonyl-methyl-6-methyl-3-[[2′-(1H-tetrazol-5-yl)biphenyl-4-yl]methyl]pyrimidin-4(3H)-one]
[1]; fimasartan 10 mg/kg
  % change in meal arterial pressure: −5.9 ± 1.9 %
  Mean arterial pressure: 111.7 ± 2.3 mmHg
[1]; fimasartan alone (FIG. 2)
  reduction of mean arterial blood pressure: 5.9±1.9%
[2]; Fimasartan 10 mg/kg daily by gavage
  reduction in blood pressure against vehicle control: 15.9%
[3]; fimasartan 5 mg/kg
  Urinary sodium (cumulative sodium excretion): 4784.8 ± 497.5 μeq/24 h
  % change in urinary sodium: 31.1 ± 13.6 %
[3]; fimasartan 5 mg/kg, listed as fimasartan
  % change in urinary sodium: 31.1±13.6%
[3]; fimasartan 10 mg/kg
  Urinary sodium (cumulative sodium excretion): 5179.7 ± 451.2 μeq/24 h and 5179.7 ± 443.7 μeq/24 h
  % change in urinary sodium: 41.9 ± 12.2 % and 51.2 ± 11.9 %
[3]; fimasartan 10 mg/kg, listed as fimasartan
  % change in urinary sodium: 41.9±12.2%
[3]; fimasartan 20 mg/kg
  Urinary sodium (cumulative sodium excretion): 6664.7 ± 448.2 μeq/24 h
  % change in urinary sodium: 82.6 ± 13.1 %
[3]; fimasartan 20 mg/kg, listed as fimasartan
  % change in urinary sodium: 82.6±13.1%

## CCOC(=O)[C@H](C)C[C@@H](Cc1ccc(-c2ccccc2)cc1)NC(=O)CCC(=O)O [Sacubitril, 4-[[(2S,4R)-5-ethoxy-4-methyl-5-oxo-1-(4-phenylphenyl)pentan-2-yl]amino]-4-oxobutanoic acid]
[1]; sacubitril 50 mg/kg
  % change in meal arterial pressure: −8 ± 1.9 %
  Mean arterial pressure: 109.2 ± 2.2 mmHg
[1]; sacubitril alone (FIG. 2)
  reduction of mean arterial blood pressure: 8.0±1.9%
[2]; Sacubitril 50 mg/kg daily by gavage
  reduction in blood pressure against vehicle control: 18.7%
[3]; sacubitril 25 mg/kg
  Urinary sodium (cumulative sodium excretion): 5185.7 ± 443.7 μeq/24 h
  % change in urinary sodium: 41.9 ± 12.2 %
[3]; sacubitril 25 mg/kg, listed as sacubitril
  % change in urinary sodium: 41.9±12.1%
[3]; sacubitril 50 mg/kg
  Urinary sodium (cumulative sodium excretion): 6678.7 ± 451.7 μeq/24 h
  % change in urinary sodium: 82.6 ± 13.5 %
[3]; sacubitril 50 mg/kg, listed as sacubitril
  % change in urinary sodium: 82.6±13.5%
[3]; sacubitril 75 mg/kg
  Urinary sodium (cumulative sodium excretion): 9129.7 ± 449.7 μeq/24 h
  % change in urinary sodium: 150.1 ± 10.4 %
[3]; sacubitril 75 mg/kg, listed as sacubitril
  % change in urinary sodium: 150.1±10.4%

## COCCOC[C@H](CC1(C(=O)N[C@H]2CC[C@@H](C(=O)O)CC2)CCCC1)C(=O)O [candoxatrilat]
[4]
  natriuretic and cyclic GMP responses to a low-dose ANP infusion: potentiates
